From patent US20150119400A1, “METHODS FOR TREATING HCV” (priority 2013, published 2015)
Like-named read-outs stand apart in the source and are kept apart here.

Legend:
[1] = system: GT1a subgenomic replicon NS3 variants; assay: Resistant colony selection and variant susceptibility, GT1a subgenomic replicon cells; type: cell-based, Hepatitis C virus; settings: A156T in GT1a
Description: (§1) The inhibitory effects of the compounds of the invention on HCV replication can also be determined by measuring activity of the luciferase reporter gene encoded by subgenomic replicons not containing the Neo selectable marker, that are transiently expressed in cells. The adaptive mutations encoded by the 1a-H77, 1b-N and 1b-Con-1 replicons are the same as listed above. The 1b-Con1 replicon used for these transient assays contains the NS2-NS5B coding region rather than the NS3-5B coding region. These replicons may encode target NS3 genes as described for stable subgenomic replicons or they may encode amino acid variants that confer varying degrees of susceptibility to the drug. For example, variants could include R155K, D168E or D168V in a genotype 1a NS3 gene; R155K or D168V in a genotype 1b NS3 gene; S138T, A166T or Q168R in a genotype 3a NS3 gene. For example, cells can be transfected with the replicon by electroporation and seeded into 96 well plates at a density of 5000 cells per well in 100 μl DMEM containing 5% FBS. […] Luciferin solution (100 μl, Promega) can be added to each well, and luciferase activity can be measured with a luminometer. The percent inhibition of HCV RNA replication can be calculated for each compound concentration and the EC50 value can be calculated using nonlinear regression curve fitting to the 4-parameter logistic equation and GraphPad Prism 4 software. […]

[2] = system: replicon containing GT3a NS3 protease, variants; assay: Resistant colony selection and variant susceptibility, replicon containing GT3a NS3 protease; type: cell-based, Hepatitis C virus
Description: The inhibitory effects of the compounds of the invention on HCV replication can also be determined by measuring activity of the luciferase reporter gene encoded by subgenomic replicons not containing the Neo selectable marker, that are transiently expressed in cells. The adaptive mutations encoded by the 1a-H77, 1b-N and 1b-Con-1 replicons are the same as listed above. The 1b-Con1 replicon used for these transient assays contains the NS2-NS5B coding region rather than the NS3-5B coding region. These replicons may encode target NS3 genes as described for stable subgenomic replicons or they may encode amino acid variants that confer varying degrees of susceptibility to the drug. For example, variants could include R155K, D168E or D168V in a genotype 1a NS3 gene; R155K or D168V in a genotype 1b NS3 gene; S138T, A166T or Q168R in a genotype 3a NS3 gene. For example, cells can be transfected with the replicon by electroporation and seeded into 96 well plates at a density of 5000 cells per well in 100 μl DMEM containing 5% FBS. Compounds diluted in dimethyl sulfoxide (DMSO) to generate a 200× stock in a series of eight half-log dilutions can then be further diluted 100-fold in the medium containing 5% FBS and added to the cell culture plates already containing 100 μl of DMEM with 5% FBS. After an incubation period of either 3 or 4 days, 30 μl of Passive Lysis buffer (Promega) can be added to each well, with incubation for 15 minutes with rocking to lyse the cells. Luciferin solution (100 μl, Promega) can be added to each well, and luciferase activity can be measured with a luminometer. The percent inhibition of HCV RNA replication can be calculated for each compound concentration and the EC50 value can be calculated using nonlinear regression curve fitting to the 4-parameter logistic equation and GraphPad Prism 4 software.
Resistant colony selection studies in GT1a and 1b subgenomic replicon cells identified A156T in GT1a and A156V in GT1b as the most frequent variants, which conferred 1400- and 1800-fold reduced susceptibility to Compound 1, respectively. […]

[3] = system: GT1b subgenomic replicon NS3 variants; assay: Resistant colony selection and variant susceptibility, GT1b subgenomic replicon cells; type: cell-based, Hepatitis C virus; settings: A156V in GT1b
Description: as §1

HCV genotype 6a replicon = assay: HCV subgenomic stable replicon cell culture assay (luciferase), genotype 6a; type: cell-based; settings: Hepatitis C virus; bound stated in description, plasma not stated; read-out: EC50 value against HCV genotype 6a
[4] = system: HCV stable subgenomic replicons containing NS3 genes from GT 1a, 1b, 2a, 3a, 4a, or 6a; assay: HCV stable subgenomic replicon panel, summary statements over several genotypes; type: cell-based; settings: Hepatitis C virus

CC(C)(C)[C@@H]1NC(=O)O[C@@H]2CCC[C@H]2OC/C=C/C(F)(F)c2nc3ccccc3nc2O[C@@H]2C[C@@H](C(=O)N[C@]3(C(=O)NS(=O)(=O)C4(C)CC4)C[C@H]3C(F)F)N(C2)C1=O [Compound 1]
fold reduced susceptibility conferred by variant [1]: 1400 fold | fold loss in susceptibility conferred by variant ([2]; A156G alone): 1500 fold | fold loss in susceptibility conferred by variant ([2]; Q168R co-selected with Y56H): 1100 fold | resistant colonies selected ([2]; concentrations ≧100-fold over its EC50 value): very few colonies | fold reduced susceptibility conferred by variant [3]: 1800 fold | EC50 (HCV genotype 6a replicon): < 1 nM | EC50 ([4]; bound stated for all six genotypes, read-out: EC50 value against HCV genotype 1a, 1b, 2a, 3a, 4a, and 6a): < 3 nM | EC50 ([4]; genotype 1a and 1b, 0% Human Plasma, 5% FBS, read-out: mean EC50 values, range over genotype 1a and 1b replicons): 0.85 to 0.94 nM | EC50 ([4]; genotype 1a and 1b, 40% Human Plasma, 5% FBS, read-out: mean EC50 values, range over genotype 1a and 1b replicons): 5 to 10 nM | EC50 ([4]; genotype 2a, 3a, 4a, 6a, 0% Human Plasma, 5% FBS, read-out: mean EC50 values, range over genotype 2a, 3a, 4a, and 6a replicons): 0.86 to 2.8 nM
